Assays:
[1] = Phase II clinical study: safety (adverse events, adverse effects, SAE); format: in vivo; details: 180, 270 and 360 mg groups vs placebo, 52 weeks, adverse effects and SAE incidence rates not statistically different
Text: Safety indexes: vital signs, laboratory indexes, adverse events/adverse effects, and the like.
All cases that had been randomized, used the study drug at least once, and had safety evaluation data after medication, constitute the safety population for this study.
Safety indexes include adverse events/adverse effects, laboratory indexes, physical examinations, and the like. • 1. The incidence rates of the adverse events/adverse effects of each group were compared using CMH-λ2 test or Fisher's exact probability method, and the relative frequency and severity of all the adverse events in the test, the relationship with the drug, the treatment, the outcome, and the like were described in a table. • 2. The physical examinations were described in a table for normal/abnormal changes after the experiment. • 3. The laboratory indexes were described in a table for normal/abnormal changes, abnormal exacerbation, and the like before and after the test, and the relationship between the laboratory indexes and the test drug was evaluated. The quantitative indexes were statistically described for each time point measured, the variation inside the groups was compared using Wilcoxon signed rank test, and the variation between the groups was compared using Kruskal-Wallis H test.

[2] = test system: HBV DNA; test: Phase II clinical study: negative conversion rate of HBV DNA; format: in vivo, human; details: for proportion of the subjects with HBV DNA substantially converted to negative: after 52 weeks of treatment, with entecavir
Experimental: (§1) This is a randomized, double-blind, placebo-controlled, multicenter, and dose-finding phase II clinical study with foundational treatment. In the clinical trial, three different dose test groups and a placebo control group were set on the basis of the entecavir capsule antiviral treatment, and the planned sample amount of each group was 60 cases, totaling 240 cases. The three dose test groups were 180 mg group, 270 mg group, and 360 mg group, respectively. The proportion of each test group to the control group was 1:1:1:1, and the cases were distributed randomly. […] Negative conversion rate of HBV DNA after treatment between the groups was compared using CMH-λ2 test or Fisher's exact probability method. • 2. Liver tissue elasticity reduction after treatment between the groups was compared using Kruskal-Wallis H test. • 3. […] The recovery rate of the liver function index after treatment between the groups was compared using CMH-λ2 test or Fisher's exact probability method, and the found values of each index between the groups were compared using variance analysis or Kruskal-Wallis H test.

[3] = test system: liver stiffness in chronic hepatitis B with hepatic fibrosis; test: Phase II clinical study: liver transient elastography LSM (kPa); format: in vivo, human; details: FAS, after 52 weeks of treatment
Experimental: as §1

Cc1ccc(=O)n(-c2ccc(O)cc2)c1 [hydronidone]
safety [1]: good
proportion of the subjects with HBV DNA substantially converted to negative ([2]; 180 mg group): 34 (94.44%) n(%)
proportion of the subjects with HBV DNA substantially converted to negative ([2]; 270 mg group): 34 (97.14%) n(%)
proportion of the subjects with HBV DNA substantially converted to negative ([2]; 360 mg group): 32 (94.12%) n(%)
influence on the reduction of the virus titer by entecavir and the ALT recovery ([2]; each hydronidone test group, 52 weeks): no influence
mean decline rate (standard deviation) of the liver transient elastography LSM (kPa) ([3]; 180 mg group): 18.30%
mean decline rate (standard deviation) of the liver transient elastography LSM (kPa) ([3]; 270 mg group): 24.62%
mean decline rate (standard deviation) of the liver transient elastography LSM (kPa) ([3]; 360 mg group): 18.98%

From patent publication US20240261271A1, “APPLICATION OF HYDRONIDONE IN PREPARATION OF DRUG FOR TREATING OR PREVENTING CHRONIC HEPATITIS B WITH LIVER FIBROSIS” (priority 2021, published 2024)
